Measurements as given in PubChem BioAssay AID1963851 (Molecular Pharmacology Branch, DTP, NCI, 2024).

System: 188146-221-R-J1-PDC complex spheroid viability
Assay: Anticancer human tumor 188146-221-R-J1-PDC patient-derived colon adenocarcinoma cell line growth inhibition [POLQ]
Conditions: for IC50: curve of first compound; for viability, T/C: stronger effect = lower value; active = viability on the fitted dose curve at most 10% of control; inactive = the rest
In short: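 Growth inhibition in 3D: complex spheroids (tumor PDC, HUVEC, MSC) treated with POLQ inhibitor combinations; where Cmax unknown, highest tested concentration 10 microM, except SN-38 at 1 microM.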

[1] = second compound 0.0316 µM, first compound 0.0316 µM
[2] = second compound 0.0316 µM, first compound 0.1 µM
[3] = second compound 0.0316 µM, first compound 0.316 µM
[4] = second compound 0.0316 µM, first compound 1 µM
[5] = second compound 0.0316 µM, first compound 3.16 µM
[6] = second compound 0.0316 µM, first compound 10 µM
[7] = second compound 0.1 µM, first compound 0.0316 µM
[8] = second compound 0.1 µM, first compound 0.1 µM
[9] = second compound 0.1 µM, first compound 0.316 µM
[10] = second compound 0.1 µM, first compound 1 µM
[11] = second compound 0.1 µM, first compound 3.16 µM
[12] = second compound 0.1 µM, first compound 10 µM
[13] = second compound 0.316 µM, first compound 0.0316 µM
[14] = second compound 0.316 µM, first compound 0.1 µM
[15] = second compound 0.316 µM, first compound 0.316 µM
[16] = second compound 0.316 µM, first compound 1 µM
[17] = second compound 0.316 µM, first compound 3.16 µM
[18] = second compound 0.316 µM, first compound 10 µM
[19] = second compound 1 µM, first compound 0.0316 µM
[20] = second compound 1 µM, first compound 0.1 µM
[21] = second compound 1 µM, first compound 0.316 µM
[22] = second compound 1 µM, first compound 1 µM
[23] = second compound 1 µM, first compound 3.16 µM
[24] = second compound 1 µM, first compound 10 µM
[25] = second compound 3.16 µM, first compound 0.0316 µM
[26] = second compound 3.16 µM, first compound 0.1 µM
[27] = second compound 3.16 µM, first compound 0.316 µM
[28] = second compound 3.16 µM, first compound 1 µM
[29] = second compound 3.16 µM, first compound 3.16 µM
[30] = second compound 3.16 µM, first compound 10 µM
[31] = second compound 10 µM, first compound 0.0316 µM
[32] = second compound 10 µM, first compound 0.1 µM
[33] = second compound 10 µM, first compound 0.316 µM
[34] = second compound 10 µM, first compound 1 µM
[35] = second compound 10 µM, first compound 3.16 µM
[36] = second compound 10 µM, first compound 10 µM
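Also: spheroids exposed to compounds for seven days.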
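For viability, T/C in this document: 100% = DMSO vehicle control viability.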

CCCS(=O)(=O)Nc1ccc(F)c(C(=O)c2c[nH]c3ncc(-c4ccc(Cl)cc4)cc23)c1F + COC1C(OC(N)=O)C(O)C(Oc2ccc3c(O)c(NC(=O)c4ccc(O)c(CC=C(C)C)c4)c(=O)oc3c2C)OC1(C)C
5.54 µM: IC50 (second compound 0.0316 µM)
7.78 µM: IC50 (second compound 3.16 µM)
5.25 µM: IC50 (second compound 10 µM)
inactive: viability, T/C [1] 106% | viability, T/C [2] 92% | viability, T/C [3] 77.3% | viability, T/C [4] 76.3% | viability, T/C [5] 79.8% | viability, T/C [6] 27.5% | viability, T/C [7] 110% | viability, T/C [8] 102% | viability, T/C [9] 89% | viability, T/C [10] 89.8% | viability, T/C [11] 76.9% | viability, T/C [12] 29.7% | viability, T/C [13] 100% | viability, T/C [14] 89.5% | viability, T/C [15] 94.5% | viability, T/C [16] 79.7% | viability, T/C [17] 65.3% | viability, T/C [18] 26.8% | viability, T/C [19] 100% | viability, T/C [20] 96.2% | viability, T/C [21] 85.4% | viability, T/C [22] 84.7% | viability, T/C [23] 75.1% | viability, T/C [24] 27.4% | viability, T/C [25] 102% | viability, T/C [26] 103% | viability, T/C [27] 92.2% | viability, T/C [28] 72.3% | viability, T/C [29] 80.9% | viability, T/C [30] 41.2% | viability, T/C [31] 102% | viability, T/C [32] 90.2% | viability, T/C [33] 96.3% | viability, T/C [34] 78.2% | viability, T/C [35] 72.7% | viability, T/C [36] 26%
4.88 µM: IC50 (second compound 0.316 µM)
5.87 µM: IC50 (second compound 0.1 µM)
5.62 µM: IC50 (second compound 1 µM)

CNCc1ccc(-c2[nH]c3cc(F)cc4c3c2CCNC4=O)cc1 + COC1C(OC(N)=O)C(O)C(Oc2ccc3c(O)c(NC(=O)c4ccc(O)c(CC=C(C)C)c4)c(=O)oc3c2C)OC1(C)C
inactive: viability, T/C [1] 111% | viability, T/C [2] 98.3% | viability, T/C [3] 109% | viability, T/C [4] 102% | viability, T/C [5] 103% | viability, T/C [6] 96.5% | viability, T/C [7] 118% | viability, T/C [8] 104% | viability, T/C [9] 106% | viability, T/C [10] 99.6% | viability, T/C [11] 102% | viability, T/C [12] 117% | viability, T/C [13] 106% | viability, T/C [14] 101% | viability, T/C [15] 102% | viability, T/C [16] 111% | viability, T/C [17] 112% | viability, T/C [18] 104% | viability, T/C [19] 108% | viability, T/C [20] 110% | viability, T/C [21] 106% | viability, T/C [22] 105% | viability, T/C [23] 99.5% | viability, T/C [24] 115% | viability, T/C [25] 98.1% | viability, T/C [26] 99.8% | viability, T/C [27] 106% | viability, T/C [28] 101% | viability, T/C [29] 111% | viability, T/C [30] 107% | viability, T/C [31] 111% | viability, T/C [32] 103% | viability, T/C [33] 110% | viability, T/C [34] 93.2% | viability, T/C [35] 117% | viability, T/C [36] 121%
> 10 µM: IC50 (second compound 0.0316 µM) | IC50 (second compound 0.1 µM) | IC50 (second compound 0.316 µM) | IC50 (second compound 1 µM) | IC50 (second compound 3.16 µM) | IC50 (second compound 10 µM)

Cn1ncnc1[C@H]1c2n[nH]c(=O)c3cc(F)cc(c23)N[C@@H]1c1ccc(F)cc1 + COC1C(OC(N)=O)C(O)C(Oc2ccc3c(O)c(NC(=O)c4ccc(O)c(CC=C(C)C)c4)c(=O)oc3c2C)OC1(C)C
inactive: viability, T/C (second compound 0.0316 µM, first compound 0.000316 µM) 109% | viability, T/C (second compound 0.0316 µM, first compound 0.001 µM) 93.7% | viability, T/C (second compound 0.0316 µM, first compound 0.00316 µM) 104% | viability, T/C (second compound 0.0316 µM, first compound 0.01 µM) 113% | viability, T/C [1] 97.9% | viability, T/C [2] 88.4% | viability, T/C (second compound 0.1 µM, first compound 0.000316 µM) 108% | viability, T/C (second compound 0.1 µM, first compound 0.001 µM) 108% | viability, T/C (second compound 0.1 µM, first compound 0.00316 µM) 108% | viability, T/C (second compound 0.1 µM, first compound 0.01 µM) 101% | viability, T/C [7] 99.5% | viability, T/C [8] 86.8% | viability, T/C (second compound 0.316 µM, first compound 0.000316 µM) 114% | viability, T/C (second compound 0.316 µM, first compound 0.001 µM) 102% | viability, T/C (second compound 0.316 µM, first compound 0.00316 µM) 98.2% | viability, T/C (second compound 0.316 µM, first compound 0.01 µM) 93.8% | viability, T/C [13] 98.8% | viability, T/C [14] 88.8% | viability, T/C (second compound 1 µM, first compound 0.000316 µM) 107% | viability, T/C (second compound 1 µM, first compound 0.001 µM) 113% | viability, T/C (second compound 1 µM, first compound 0.00316 µM) 108% | viability, T/C (second compound 1 µM, first compound 0.01 µM) 107% | viability, T/C [19] 98.2% | viability, T/C [20] 101% | viability, T/C (second compound 3.16 µM, first compound 0.000316 µM) 108% | viability, T/C (second compound 3.16 µM, first compound 0.001 µM) 103% | viability, T/C (second compound 3.16 µM, first compound 0.00316 µM) 106% | viability, T/C (second compound 3.16 µM, first compound 0.01 µM) 97.5% | viability, T/C [25] 110% | viability, T/C [26] 102% | viability, T/C (second compound 10 µM, first compound 0.000316 µM) 114% | viability, T/C (second compound 10 µM, first compound 0.001 µM) 104% | viability, T/C (second compound 10 µM, first compound 0.00316 µM) 111% | viability, T/C (second compound 10 µM, first compound 0.01 µM) 104% | viability, T/C [31] 103% | viability, T/C [32] 105%
> 0.1 µM: IC50 (second compound 0.0316 µM) | IC50 (second compound 0.1 µM) | IC50 (second compound 0.316 µM) | IC50 (second compound 1 µM) | IC50 (second compound 3.16 µM) | IC50 (second compound 10 µM)
